Experimental data from ChEMBL document CHEMBL1177690, “Target-specific control of lymphoid-specific protein tyrosine phosphatase (Lyp) activity” (Bioorg Med Chem, 2010).

Assay: Inhibition of Lyp CCPGCC mutant expressed in Escherichia coli […]

**Q.** For O=C(O)c1ccccc1-c1c2ccc(=O)c([As]3SCCS3)c-2oc2c([As]3SCCS3)c(O)ccc12, which IC50 is on record?
**A.** 625 nM
